Assay results as given in patent US20250177548A1, “FUSOGENIC PEPTIDE COMPOSITIONS AND METHODS OF CARGO DELIVERY” (CLEMSON UNIVERSITY, priority 2022, published 2025).
Non-standard residues stand in square brackets, D forms with d. Residues, ends and D or L forms follow the SMILES beside them.

Columns and labels:
CSNK2A1 mRNA [1] = assay: qPCR of CSNK2A1 mRNA in CAOV3 cells; type: cell-based; settings: CAOV3, 48 hours, 80:1
Method: (§1) qRT-PCR. Cells were seeded at 50,000 cells per well and treated with siRNA targeting CSNK2A1 (siCSNK2A1 #s3638, Thermo Fisher Scientific) at increasing N:P ratios and incubated for a total of 48 hours in McCoys 5A/DMEM-10% FBS. Treated cells were washed with 1×PBS at 24 hours and fresh media was added. RNAisolation was completed using a Qiagen Mini-RNeasy Kit (Qiagen, Hilden, Germany) according to the manufacturer's protocol. RNA isolation quality and quantity were measured through the Gen5 protocol using a Take3 plate (BioTek). RNA was reverse-transcribed using the QuantiTect Reverse Transcription kit (Qiagen). Quantitative real-time PCR was completed with a QuantStudio 3 qPCR system (Applied Biosystems) using Applied Biosystems TaqMan FAST Master Mix (Thermo Fisher) and CSNK2A1 (ID #Hs00751002_s1) and 18S (ID #Hs99999901_s1) predesigned TaqMan probes, according to the manufacturer's protocol.

[2] = system: MCF10a breast epithelial cells; assay: MTS cell viability assay, healthy cells; type: cell-based; settings: 48 h (FIG. 25: DIV3W-siNT complexes)
CSNK2A1 mRNA [3] = assay: qPCR of CSNK2A1 mRNA in OVCAR3 cells; type: cell-based; settings: maximum; ratio and cell line not stated at the place
Method: as §1
Gene and Protein Knockdown. Bioactivity of siRNAs was determined via qPCR and western blot analysis. OVCAR3 or CAOV3 cells were seeded at 50,000 cells per well as previously described and treated with siRNA targeting CSNK2A1 and siNT at N:P ratios 30:1, 40:1, 50:1, 60:1, and 70:1. LHRH-DIV3W peptide complexed with either siNT or siCSNK2A1 was incubated for a total of 48 hours in RPMI 1640/DMEM-10% FBS, with one media exchange occurring after the 24-hour timepoint. Treated cells were washed with 1×PBS at 24 hours and fresh media was added. RNA isolation was completed using a Qiagen Mini-RNeasy Kit (Qiagen, Hilden, Germany) according to the manufacturer's protocol. RNA isolation quality and quantity was measured through the Gen5 protocol using a Take3 plate (BioTek). RNA was reverse transcribed using the QuantiTect Reverse Transcription kit (Qiagen) according to the manufacturer's protocol. Quantitative real-time PCR was completed with a QuantStudio 3 qPCR system (Applied Biosystems, Waltham, MA) using Applied Biosystems TaqMan FAST Master Mix (Thermo Fisher) and CSNK2A1 (ID #Hs00751002_s1) and 18S (ID #Hs99999901_s1) predesigned TaqMan probes according to the manufacturer's protocol.

[4] = dynamic light scattering, size and zeta potential of peptide/siRNA complexes; type: physicochemical
Method: Dynamic Light Scattering and Transmission Electron Microscopy. DIV3 (X)-siNT complexes were prepared at 2 mg/mL in RNase-free water. Hydrodynamic size and surface charge of the peptide/siRNA complexes were determined using a Nano ZS Zetasizer (Malvern Pananalytical, Malvern, UK). All data were recorded using Malvern's Zetasizer software.
To determine nanoparticle size and zeta potential, peptides resuspended in RNase-free water (10 μM) were thawed and kept on ice prior to complexation with 10 μM of siNT in RNase-free water and incubated for 20 minutes at room temperature to form DIV3W-siNT and LHRH-DIV3W-siNT complexes. Peptide complexes were prepared at 2 mg/mL in RNase-free water. Hydrodynamic size and surface charge analysis was conducted using a Malvern Nano ZS Zetasizer (Malvern Panalytical, Malvern, UK). All data was analyzed using Malvern's Zetasizer software.

OVCAR3 cells = assay: cellular uptake of labeled siRNA by flow cytometry; type: cell-based; settings: for uptake efficiency: OVCAR3, siNT-DY547, 4 hours
Method: Cellular Uptake. OVCAR3 and CAOV3 cells were prepared at 50,000 cells per well in a 24-well plate. […] Post-incubation, media was aspirated and cells were washed with 1× PBS. To counterstain the nuclei, SuperSignal NucBlue Hoechst stain (Thermo Fisher, Waltham, MA) was added to the cells for 30 minutes, followed by an additional 1×PBS wash. Subsequent imaging was performed using an EVOS FL Microscope (Thermo Fisher) at 10× magnification. For flow cytometric analysis, cells were detached, resuspended in 1× PBS, and analyzed using an Attune NXT Acoustic flow cytometer (Invitrogen, Carlsbad, CA) with the blue laser line and BL2 (574/26 nm) channel.
Cellular Uptake and Targeting Specificity. Observation of cell uptake was performed by seeding OVCAR3 and CAOV3 cells at a density of 50,000 cells per well in a 24-well plate. LHRH and LHRH-DIV3W peptides were complexed with […] as previously described and delivered to cells at 20:1 to 80:1 N:P ratios. Each cell line was incubated with tandem peptide complexes for both 4- and 24-hour treatment periods. Following incubation, cell media was removed, and cells were washed with 1× PBS prior to the addition of 500 μL of 1×PBS and SuperSignal NucBlue Hoescht 33342 nuclear stain (Thermo Fisher, Waltham, MA). Cellular imaging was completed using an EVOS FL Microscope (Thermo Fisher) at 10×, 20×, and 40× magnification. Flow cytometry was completed after cell imaging and cells were trypsinized, resuspended in 1×PBS, and analyzed with an Attune NXT Acoustic Flow Cytometer (Invitrogen) with the red laser line and RL2 […] channel.

RNase A = assay: gel assay of siRNA protection from RNase A degradation; type: in vitro ADME; settings: 1 hour, several N:P ratios
Method: Gel Shift Assays. DIVA3, DIV3H, and DIV3W (all three denoted as DIV3 (X)) peptides suspended in RNase-free water (10 μM), were thawed, and kept on ice prior to complexation with 10 μM of negative control siGENOME non-targeting siRNA #5 (siNT, GE Healthcare Dharmacon, Lafayette, CO) in RNase-free water and incubated for 20 minutes at room temperature to allow the formation of DIV3 (X)-siNT complexes. Various molar ratios of peptides were complexed with siNT at increasing N:P molar ratios to determine the minimum molar ratio necessary to completely complex free siRNAs using an electrophoretic mobility shift assay. To determine the ability of each peptide variant to protect siRNAs from degradation, DIV3 (X)-siNT complexes or siNT alone was left untreated or incubated with either 50% v/v FBS or 5 μg/mL RNase A at 37° C. for one hour. Next, complexes were dissociated using 6% sodium dodecyl sulfate (SDS). Samples were added to a 2% agarose gel and run at 100 V. Gels were stained with ethidium bromide, destained with Milli-Q water, and imaged using a ChemiDoc XRS imager (Bio-Rad, Hercules, CA).
Characterization of Nanoparticle Size and Stability. To determine the minimum molar ratio necessary to completely complex free siRNAs, increasing N:P molar ratios of LHRH, DIV3W, and LHRH-DIV3W peptide were complexed with siRNAs and electrophoresed using a electrophoretic mobility shift assay. Molar ratios, shown as N:P, are representations of the molar amine peptide content in relation to 1 mole of phosphate group siRNA content. To determine the ability of the peptides to protect siRNAs from serum- or RNase-mediated degradation, LHRH and LHRH-DIV3W complexes were formed in RNase-free water with siNT at increasing N:P molar ratios and incubated at 37° C., 5% CO2, 50% v/v FBS, 5 μg/mL RNase A, or 50% v/v RNase free water for 1 hour. Peptide/siRNA complexes were dissociated using 6% sodium dodecyl sulfate (SDS) prior to electrophoresis in a 2% agarose gel run at 100 V. Gels were stained with ethidium bromide, washed with Milli-Q water, and imaged with a BioRad ChemiDoc XRS imager (BioRad, Hercules, CA).
Peptides VA-LD and GF-LD, comprising the cleavable linker VA or GLFG, respectively, between the LHRH target sequence and the DIV3W peptide, and non targeting siRNA were electrostatically complexed at increasing N:P ratios then subjected to agarose gel electrophoresis to determine optimal siRNA binding for each peptide. […] Peptide-siRNA nanocomplexes at increasing N:P ratios for peptides for VA-LD (FIG. 30A) and GF-LD (FIG. 30C) were incubated in either Rnase A enzyme or in 50% fetal bovine serum (FBS) for 1 h, dissociated using SDS then subjected to gel electrophoresis to visualize siRNA bands. Gels showing increasing N:P ratios of peptide:siRNA for VA-LD (FIG. 30B) and GF-LD (FIG. 30D) from 20:1 to 80:1 N:P; white bands are indicative of intact siRNA

Q: For CC[C@H](C)[C@H](NC(=O)[C@H](CC(=O)O)NC(=O)[C@H](C)NC(=O)[C@@H](NC(=O)[C@@H](NC(=O)[C@H](CC(=O)O)NC(=O)[C@H](Cc1c[nH]c2ccccc12)NC(=O)[C@@H](NC(=O)[C@@H](NC(=O)[C@H](CC(=O)O)NC(=O)[C@H](C)NC(=O)[C@@H](NC(=O)[C@@H](NC(=O)[C@H](CC(=O)O)NC(=O)[C@H](C)NC(=O)[C@H](CCC(=O)O)NC(=O)[C@@H](N)Cc1c[nH]c2ccccc12)[C@@H](C)CC)C(C)C)[C@@H](C)CC)C(C)C)[C@@H](C)CC)C(C)C)C(=O)N[C@H](C(=O)N[C@@H](C)C(=O)NCC(=O)NCC(=O)NCC(=O)N[C@H](CCCNC(=N)N)C(=O)N[C@H](CCCNC(=N)N)C(=O)N[C@H](CCCNC(=N)N)C(=O)N[C@H](CCCNC(=N)N)C(=O)N[C@H](CCCNC(=N)N)C(=O)N[C@H](CCCNC(=N)N)C(=O)N[C@H](CCCNC(=N)N)C(=O)N[C@H](CCCNC(=N)N)C(=O)N[C@H](CCCNC(=N)N)C(=O)O)C(C)C [DIV3W] (H-WEADIVADIVWDIVADIVAGGG[dR][dR][dR][dR][dR][dR][dR][dR][dR]-OH), which “CSNK2A1 mRNA knockdown, maximum” value (CSNK2A1 mRNA [1]) is on record?
A: 80%

Q: And the “cytotoxicity in healthy cells” value [2]?
A: no cytotoxic effects were observed

Q: And the mRNA reduction (CSNK2A1 mRNA [3])?
A: up to 94%

Q: And the hydrodynamic diameter ([4]; DIV3 (X) peptide/siRNA complex at 60:1 ratio)?
A: around 100 nm

Q: And the zeta potential ([4]; DIV3 (X) peptide/siRNA complexes)?
A: ~30 mV

Q: And the siRNA internalization efficiency (OVCAR3 cells; OVCAR3, at each N:P ratio)?
A: approximately 65%

Q: What about the uptake efficiency (OVCAR3 cells; 40:1) of the same molecule?
A: 70.0%

Q: And the uptake efficiency (OVCAR3 cells; 60:1)?
A: 69.7%

Q: And the uptake efficiency (OVCAR3 cells; 80:1)?
A: 66.6%

Q: What about the “intact siRNA after incubation with RNase A” value (RNase A) of the same molecule?
A: Minimal degradation
